Test system: BxPC3
Assay: CellTiter-Glo 2.0 Cytotoxicity Assay
Assay type: cell-based
Details: compound added day 1, read on day 4 or 5, 3000 cells/well
[1] = Homo sapiens, BXPC-3, CellTiter-Glo 2.0 luminescence

COc1cccc2c1C(=O)c1c(O)c3c(c(O)c1C2=O)C[C@@](O)(C(=O)NCCN(C)C(=O)C1CCNC1)C[C@@H]3O[C@H]1C[C@H]2[C@H](O[C@@H]3[C@@H](OC)OCCN32)[C@H](C)O1 (single isomer, unassigned) [Compound 49]
EC50 [1]: 31 nM

COc1cccc2c1C(=O)c1c(O)c3c(c(O)c1C2=O)C[C@@](O)(C(=O)NCCN(C)C(=O)C1CCNC1)C[C@@H]3O[C@H]1C[C@H]2[C@H](O[C@@H]3[C@@H](OC)OCCN32)[C@H](C)O1 (single isomer, unassigned) [Compound 50]
EC50 (CellTiter-Glo 2.0 luminescence): 20 nM

COc1cccc2c1C(=O)c1c(O)c3c(c(O)c1C2=O)C[C@@](O)(C(=O)NCc1cccc(N)c1)C[C@@H]3O[C@H]1C[C@H]2[C@H](O[C@@H]3[C@@H](OC)OCCN32)[C@H](C)O1 [Compound 1, (2S,4S)—N-(3-aminobenzyl)-2,5,12-trihydroxy-7-methoxy-4-(((1S,3R,4aS,9S,9aR,10aS)-9-methoxy-1-methyloctahydro-1H-pyrano[4′,3′:4,5]oxazolo[2,3-c][1,4]oxazin-3-yl)oxy)-6,11-dioxo-1,2,3,4,6,11-hexahydrotetracene-2-carboxamide]
EC50 [1]: 0.08 nM

COc1cccc2c1C(=O)c1c(O)c3c(c(O)c1C2=O)C[C@@](O)(C(=O)N1CC(CN)C1)C[C@@H]3O[C@H]1C[C@H]2[C@H](O[C@@H]3[C@@H](OC)OCCN32)[C@H](C)O1 [Compound 2]
EC50 [1]: 22 nM

COc1cccc2c1C(=O)c1c(O)c3c(c(O)c1C2=O)C[C@@](O)(C(=O)NCCNC(=O)[C@@H]1CCCN1)C[C@@H]3O[C@H]1C[C@H]2[C@H](O[C@@H]3[C@@H](OC)OCCN32)[C@H](C)O1 [Compound 3]
EC50 [1]: 13 nM

COc1cccc2c1C(=O)c1c(O)c3c(c(O)c1C2=O)C[C@@](O)(C(=O)NCCNC(=O)CN)C[C@@H]3O[C@H]1C[C@H]2[C@H](O[C@@H]3[C@@H](OC)OCCN32)[C@H](C)O1 [Compound 4]
EC50 [1]: 13 nM

COc1cccc2c1C(=O)c1c(O)c3c(c(O)c1C2=O)C[C@@](O)(C(=O)NCCNC(=O)NN)C[C@@H]3O[C@H]1C[C@H]2[C@H](O[C@@H]3[C@@H](OC)OCCN32)[C@H](C)O1 [Compound 5]
EC50 [1]: 2.8 nM

COc1cccc2c1C(=O)c1c(O)c3c(c(O)c1C2=O)C[C@@](O)(C(=O)N1CC(CNC(=O)[C@H](C)N)C1)C[C@@H]3O[C@H]1C[C@H]2[C@H](O[C@@H]3[C@@H](OC)OCCN32)[C@H](C)O1 [Compound 6]
EC50 [1]: 8.6 nM

COc1cccc2c1C(=O)c1c(O)c3c(c(O)c1C2=O)C[C@@](O)(C(=O)NCCNC(=O)[C@H](C)N)C[C@@H]3O[C@H]1C[C@H]2[C@H](O[C@@H]3[C@@H](OC)OCCN32)[C@H](C)O1 [Compound 7]
EC50 [1]: 13 nM

COc1cccc2c1C(=O)c1c(O)c3c(c(O)c1C2=O)C[C@@](O)(C(=O)NCCCNCCCNC(=O)CN)C[C@@H]3O[C@H]1C[C@H]2[C@H](O[C@@H]3[C@@H](OC)OCCN32)[C@H](C)O1 [Compound 8]
EC50 [1]: 48 nM

CNCCNC(=O)[C@]1(O)Cc2c(O)c3c(c(O)c2[C@@H](O[C@H]2C[C@H]4[C@H](O[C@@H]5[C@@H](OC)OCCN54)[C@H](C)O2)C1)C(=O)c1c(OC)cccc1C3=O [Compound 9]
EC50 [1]: 17 nM

COc1cccc2c1C(=O)c1c(O)c3c(c(O)c1C2=O)C[C@@](O)(C(=O)N1CC(CN2CC(N)C2)C1)C[C@@H]3O[C@H]1C[C@H]2[C@H](O[C@@H]3[C@@H](OC)OCCN32)[C@H](C)O1 [Compound 10]
EC50 [1]: 124 nM

COc1cccc2c1C(=O)c1c(O)c3c(c(O)c1C2=O)C[C@@](O)(C(=O)N1CC(CN2CC(NC(=O)[C@H](C)N)C2)C1)C[C@@H]3O[C@H]1C[C@H]2[C@H](O[C@@H]3[C@@H](OC)OCCN32)[C@H](C)O1 [Compound 11]
EC50 [1]: 822 nM

COc1cccc2c1C(=O)c1c(O)c3c(c(O)c1C2=O)C[C@@](O)(C(=O)NC1CCNC1)C[C@@H]3O[C@H]1C[C@H]2[C@H](O[C@@H]3[C@@H](OC)OCCN32)[C@H](C)O1 (stereo partly shown) [Compound 12]
EC50 [1]: 7.7 nM

COc1cccc2c1C(=O)c1c(O)c3c(c(O)c1C2=O)C[C@@](O)(C(=O)N(C)CCN)C[C@@H]3O[C@H]1C[C@H]2[C@H](O[C@@H]3[C@@H](OC)OCCN32)[C@H](C)O1 [Compound 13]
EC50 [1]: 5.4 nM

COc1cccc2c1C(=O)c1c(O)c3c(c(O)c1C2=O)C[C@@](O)(C(=O)NCCCN(C)CCCN)C[C@@H]3O[C@H]1C[C@H]2[C@H](O[C@@H]3[C@@H](OC)OCCN32)[C@H](C)O1 [Compound 14]
EC50 [1]: 11 nM

COc1cccc2c1C(=O)c1c(O)c3c(c(O)c1C2=O)C[C@@](O)(C(=O)NCCN1CCC(N)C1=O)C[C@@H]3O[C@H]1C[C@H]2[C@H](O[C@@H]3[C@@H](OC)OCCN32)[C@H](C)O1 (stereo partly shown) [Compound 15]
EC50 [1]: 64 nM

COc1cccc2c1C(=O)c1c(O)c3c(c(O)c1C2=O)C[C@@](O)(C(=O)NC1CNCC1(F)F)C[C@@H]3O[C@H]1C[C@H]2[C@H](O[C@@H]3[C@@H](OC)OCCN32)[C@H](C)O1 (stereo partly shown) [Compound 16]
EC50 (CellTiter-Glo 2.0 luminescence): 24 nM

COc1cccc2c1C(=O)c1c(O)c3c(c(O)c1C2=O)C[C@@](O)(C(=O)NC1CNCC1(F)F)C[C@@H]3O[C@H]1C[C@H]2[C@H](O[C@@H]3[C@@H](OC)OCCN32)[C@H](C)O1 (stereo partly shown) [Compound 17]
EC50 (CellTiter-Glo 2.0 luminescence): 10.7 nM

COc1cccc2c1C(=O)c1c(O)c3c(c(O)c1C2=O)C[C@@](O)(C(=O)NCCCN)C[C@@H]3O[C@H]1C[C@H]2[C@H](O[C@@H]3[C@@H](OC)OCCN32)[C@H](C)O1 [Compound 18]
EC50 [1]: 8.5 nM

COc1cccc2c1C(=O)c1c(O)c3c(c(O)c1C2=O)C[C@@](O)(C(=O)NC1CCC1N)C[C@@H]3O[C@H]1C[C@H]2[C@H](O[C@@H]3[C@@H](OC)OCCN32)[C@H](C)O1 (stereo partly shown) [Compound 19]
EC50 (CellTiter-Glo 2.0 luminescence): 4 nM

COc1cccc2c1C(=O)c1c(O)c3c(c(O)c1C2=O)C[C@@](O)(C(=O)NC1CCC1N)C[C@@H]3O[C@H]1C[C@H]2[C@H](O[C@@H]3[C@@H](OC)OCCN32)[C@H](C)O1 (stereo partly shown) [Compound 20]
EC50 (CellTiter-Glo 2.0 luminescence): 8.5 nM

COc1cccc2c1C(=O)c1c(O)c3c(c(O)c1C2=O)C[C@@](O)(C(=O)NCc1ccc(N)cc1)C[C@@H]3O[C@H]1C[C@H]2[C@H](O[C@@H]3[C@@H](OC)OCCN32)[C@H](C)O1 [Compound 23]
EC50 [1]: 0.06 nM

COc1cccc2c1C(=O)c1c(O)c3c(c(O)c1C2=O)C[C@@](O)(C(=O)N1CC(N)C1)C[C@@H]3O[C@H]1C[C@H]2[C@H](O[C@@H]3[C@@H](OC)OCCN32)[C@H](C)O1 [Compound 24]
EC50 [1]: 8.3 nM

COc1cccc2c1C(=O)c1c(O)c3c(c(O)c1C2=O)C[C@@](O)(C(=O)N[C@H]1CCCC[C@@H]1N)C[C@@H]3O[C@H]1C[C@H]2[C@H](O[C@@H]3[C@@H](OC)OCCN32)[C@H](C)O1 [Compound 25]
EC50 [1]: 10.5 nM

COc1cccc2c1C(=O)c1c(O)c3c(c(O)c1C2=O)C[C@@](O)(C(=O)N[C@@H]1CCCC[C@H]1N)C[C@@H]3O[C@H]1C[C@H]2[C@H](O[C@@H]3[C@@H](OC)OCCN32)[C@H](C)O1 [Compound 26]
EC50 [1]: 2.7 nM

COc1cccc2c1C(=O)c1c(O)c3c(c(O)c1C2=O)C[C@@](O)(C(=O)NC1CNC1)C[C@@H]3O[C@H]1C[C@H]2[C@H](O[C@@H]3[C@@H](OC)OCCN32)[C@H](C)O1 [Compound 27]
EC50 [1]: 39 nM

COc1cccc2c1C(=O)c1c(O)c3c(c(O)c1C2=O)C[C@@](O)(C(=O)N1CC2(CCNC2)C1)C[C@@H]3O[C@H]1C[C@H]2[C@H](O[C@@H]3[C@@H](OC)OCCN32)[C@H](C)O1 [Compound 28]
EC50 [1]: 478 nM

COc1cccc2c1C(=O)c1c(O)c3c(c(O)c1C2=O)C[C@@](O)(C(=O)N1CCC2(CNC2)C1)C[C@@H]3O[C@H]1C[C@H]2[C@H](O[C@@H]3[C@@H](OC)OCCN32)[C@H](C)O1 [Compound 29]
EC50 [1]: 90 nM

COc1cccc2c1C(=O)c1c(O)c3c(c(O)c1C2=O)C[C@@](O)(C(=O)N1CC2(CNC2)C1)C[C@@H]3O[C@H]1C[C@H]2[C@H](O[C@@H]3[C@@H](OC)OCCN32)[C@H](C)O1 [Compound 30]
EC50 [1]: 14 nM

COc1cccc2c1C(=O)c1c(O)c3c(c(O)c1C2=O)C[C@@](O)(C(=O)NC[C@H]1C[C@@H](N)C1)C[C@@H]3O[C@H]1C[C@H]2[C@H](O[C@@H]3[C@@H](OC)OCCN32)[C@H](C)O1 [Compound 31]
EC50 [1]: 2.6 nM

COc1cccc2c1C(=O)c1c(O)c3c(c(O)c1C2=O)C[C@@](O)(C(=O)NCc1ccc(N)cn1)C[C@@H]3O[C@H]1C[C@H]2[C@H](O[C@@H]3[C@@H](OC)OCCN32)[C@H](C)O1 [Compound 32]
EC50 [1]: 0.07 nM

COc1cccc2c1C(=O)c1c(O)c3c(c(O)c1C2=O)C[C@@](O)(C(=O)N[C@@H]1CC[C@H](N)C1)C[C@@H]3O[C@H]1C[C@H]2[C@H](O[C@@H]3[C@@H](OC)OCCN32)[C@H](C)O1 [Compound 33]
EC50 [1]: 9.2 nM

COc1cccc2c1C(=O)c1c(O)c3c(c(O)c1C2=O)C[C@@](O)(C(=O)N[C@H]1CC[C@@H](N)C1)C[C@@H]3O[C@H]1C[C@H]2[C@H](O[C@@H]3[C@@H](OC)OCCN32)[C@H](C)O1 [Compound 34]
EC50 [1]: 19 nM

COc1cccc2c1C(=O)c1c(O)c3c(c(O)c1C2=O)C[C@@](O)(C(=O)N[C@H]1[C@@H]2CNC[C@@H]21)C[C@@H]3O[C@H]1C[C@H]2[C@H](O[C@@H]3[C@@H](OC)OCCN32)[C@H](C)O1 [Compound 35]
EC50 [1]: 0.97 nM

COc1cccc2c1C(=O)c1c(O)c3c(c(O)c1C2=O)C[C@@](O)(C(=O)NCC1(F)CNC1)C[C@@H]3O[C@H]1C[C@H]2[C@H](O[C@@H]3[C@@H](OC)OCCN32)[C@H](C)O1 [Compound 36]
EC50 [1]: 0.42 nM

COc1cccc2c1C(=O)c1c(O)c3c(c(O)c1C2=O)C[C@@](O)(C(=O)NC[C@H]1CCNC1)C[C@@H]3O[C@H]1C[C@H]2[C@H](O[C@@H]3[C@@H](OC)OCCN32)[C@H](C)O1 [Compound 37]
EC50 [1]: 8 nM

CNCCCNC(=O)[C@]1(O)Cc2c(O)c3c(c(O)c2[C@@H](O[C@H]2C[C@H]4[C@H](O[C@@H]5[C@@H](OC)OCCN54)[C@H](C)O2)C1)C(=O)c1c(OC)cccc1C3=O [Compound 38]
EC50 [1]: 9.1 nM

COc1cccc2c1C(=O)c1c(O)c3c(c(O)c1C2=O)C[C@@](O)(C(=O)NCCCN1CCNCC1)C[C@@H]3O[C@H]1C[C@H]2[C@H](O[C@@H]3[C@@H](OC)OCCN32)[C@H](C)O1 [Compound 39]
EC50 [1]: 3.8 nM

COc1cccc2c1C(=O)c1c(O)c3c(c(O)c1C2=O)C[C@@](O)(C(=O)NCC[C@@H]1CCCN1)C[C@@H]3O[C@H]1C[C@H]2[C@H](O[C@@H]3[C@@H](OC)OCCN32)[C@H](C)O1 [Compound 40]
EC50 [1]: 4.3 nM
